Measurements reported in patent publication US12570612B2, “Substituted nitrogen heterocyclic compound and anesthetic effect thereof” (priority 2019, dated 2026).
Where two headings read alike, the source gives them in different places.

How the values were obtained:
Type in all cases: in vivo
[1] = test system: Sprague-Dawley rats; assay: Pharmacological effect and adverse reactions under the equivalent dose (2ED50), Group C compounds; details: for Righting reflex duration / Sedation duration / Onset time: 2ED50, tail vein, rats, n=8; for Adverse reaction: Convulsions / Adverse reaction: Cough, broken-winded / Adverse reaction: Euphoria / Adverse reaction: Red urine / Adverse reaction: Slower breathing, Tetany convulsion / Adverse reaction: Systemic stiffness, Convulsions, Opisthotonus / Adverse reaction: Tongue stretching / Adverse reaction: Tremor / Adverse reaction: the four limbs rigidity: equivalent dose (2ED50), number of rats of n = 8
Source text: Evaluation index: onset time: from the completion of drug injection to the disappearance of forepaw righting reflex in rats; Duration of anesthesia: the time from the disappearance of rat forepaw righting reflex to the recovery of rat forepaw righting reflex; Recovery time of anesthesia: the time from the […] to complete recovery;

[2] = test system: Sprague-Dawley rats; assay: animal or person; details: rats; for ED50: LORR, up and down method, tail vein, class symbols
Source text: Evaluating indicator: The end point of anesthesia: LORR was used as the end point of anesthesia; General anesthesia effect: the disappearance of forepaw righting reflex in rats lasting for 30 seconds is taken as the index of general anesthesia effect; Anesthesia recovery index: the recovery of rat forepaw righting reflex was used as the index of anesthesia recovery.

[3] = test system: Sprague-Dawley rats; details: tail vein
[4] = Rattus norvegicus, read-out: ED50

## C[C@H](c1ccccc1)n1cncc1C(=O)COC(C)(C)C [Compound C45]
[1]
  Righting reflex duration: 3.00 ± 1.02 min
  Sedation duration: 7.74 ± 0.85 min
  Adverse reaction: Convulsions: 0
  Adverse reaction: Cough, broken-winded: 0
  Adverse reaction: Euphoria: 0
  Adverse reaction: Red urine: 8
  Adverse reaction: Slower breathing, Tetany convulsion: 0
  Adverse reaction: Systemic stiffness, Convulsions, Opisthotonus: 7
  Adverse reaction: Tongue stretching: 0
  Adverse reaction: Tremor: 0
  Adverse reaction: the four limbs rigidity: 1
[1]; unit s
  Onset time: <30 s
[2]
  Approximate therapeutic index: >2.2
[3]
  Minimal lethal dose: >10.8 mg/kg

## CCC(CC)OCC(=O)c1c(F)ncn1[C@H](C)c1ccccc1 [Compound C78]
[1]
  Righting reflex duration: 2.59 ± 0.99 min
  Sedation duration: 7.30 ± 1.85 min
  Adverse reaction: Convulsions: 0
  Adverse reaction: Cough, broken-winded: 0
  Adverse reaction: Euphoria: 0
  Adverse reaction: Red urine: 8
  Adverse reaction: Slower breathing, Tetany convulsion: 0
  Adverse reaction: Systemic stiffness, Convulsions, Opisthotonus: 0
  Adverse reaction: Tongue stretching: 1
  Adverse reaction: Tremor: 0
  Adverse reaction: the four limbs rigidity: 1
[1]; unit s
  Onset time: <30 s
[2]; [4]
  ED50: 0.5 to 1 mg/kg
[2]
  Approximate therapeutic index: >14.3
[3]
  Minimal lethal dose: >11.5 mg/kg

## CC1OC1C(=O)c1cncn1[C@H](C)c1ccccc1 (some centres unmarked) [Compound C56]
[1]
  Righting reflex duration: 1.49 ± 0.62 min
  Sedation duration: 5.32 ± 1.21 min
  Adverse reaction: Convulsions: 0
  Adverse reaction: Cough, broken-winded: 0
  Adverse reaction: Euphoria: 0
  Adverse reaction: Red urine: 8
  Adverse reaction: Slower breathing, Tetany convulsion: 0
  Adverse reaction: Systemic stiffness, Convulsions, Opisthotonus: 0
  Adverse reaction: Tongue stretching: 1
  Adverse reaction: Tremor: 1
  Adverse reaction: the four limbs rigidity: 0
[1]; unit min
  Onset time: <60 s
[2]; [4]
  ED50: 2 to 10 mg/kg
[2]
  Approximate therapeutic index: >16.6
[3]
  Minimal lethal dose: >13.61 mg/kg

## COCC(=O)c1c(F)ncn1[C@H](C)c1ccccc1 [Compound C71]
[1]
  Righting reflex duration: 2.00 ± 0.81 min
  Sedation duration: 5.11 ± 1.64 min
  Adverse reaction: Convulsions: 2
  Adverse reaction: Cough, broken-winded: 0
  Adverse reaction: Euphoria: 0
  Adverse reaction: Red urine: 8
  Adverse reaction: Slower breathing, Tetany convulsion: 0
  Adverse reaction: Systemic stiffness, Convulsions, Opisthotonus: 0
  Adverse reaction: Tongue stretching: 0
  Adverse reaction: Tremor: 1
  Adverse reaction: the four limbs rigidity: 1
[1]; unit s
  Onset time: <30 s
[2]
  ED50: ++ (++ means that the measured ED50 is in the range of 0.50-1.00 mg/kg (excluding 0.50 mg/kg, including 1.00 mg/kg))
  Approximate therapeutic index: >8.0
[3]
  Minimal lethal dose: >6.6 mg/kg

## CC#CCOCC(=O)c1c(F)ncn1[C@H](C)c1ccccc1 [Compound C69]
[1]
  Righting reflex duration: 1.91 ± 0.68 min
  Sedation duration: 6.28 ± 1.62 min
  Adverse reaction: Convulsions: 0
  Adverse reaction: Cough, broken-winded: 0
  Adverse reaction: Euphoria: 0
  Adverse reaction: Red urine: 8
  Adverse reaction: Slower breathing, Tetany convulsion: 0
  Adverse reaction: Systemic stiffness, Convulsions, Opisthotonus: 1
  Adverse reaction: Tongue stretching: 0
  Adverse reaction: Tremor: 0
  Adverse reaction: the four limbs rigidity: 0
[1]; unit s
  Onset time: <30 s
[2]; [4]
  ED50: 0.04 to 0.5 mg/kg
[2]
  Approximate therapeutic index: >19.2
[3]
  Minimal lethal dose: >4.2 mg/kg

## CC#CCOCC(=O)c1cc(F)nn1[C@H](C)c1ccccc1 [Compound C14]
[1]
  Righting reflex duration: 1.38 ± 0.47 min
  Sedation duration: 9.03 ± 1.58 min
  Adverse reaction: Convulsions: 0
  Adverse reaction: Cough, broken-winded: 0
  Adverse reaction: Euphoria: 1
  Adverse reaction: Red urine: 8
  Adverse reaction: Slower breathing, Tetany convulsion: 0
  Adverse reaction: Systemic stiffness, Convulsions, Opisthotonus: 0
  Adverse reaction: Tongue stretching: 0
  Adverse reaction: Tremor: 1
  Adverse reaction: the four limbs rigidity: 0
[1]; unit min
  Onset time: <60 s
[2]
  ED50: ++++ (++++ indicates that the measured ED50 is in the range of 2.00-10.00 mg/kg (excluding 2.00 mg/kg, including 6.00 mg/kg))
  Approximate therapeutic index: >6.0
[3]
  Minimal lethal dose: >14.5 mg/kg
